Results from patent US20200397711A1, “MICROPARTICLE COMPOSITIONS FOR TREATMENT OF INFECTION OR DISEASE, METHODS OF MAKING THE SAME, AND METHODS OF TREATING SUBJECTS WITH MICROPARTICLE COMPOSITIONS” (priority 2019, published 2020).

Assays:
[1] = system: planktonic and biofilm-associated Listeria monocytogenes and Salmonella typhimurium; details: combined with streptomycin; cited from earlier work
[2] = system: biofilms of K. pneumoniae; details: cited from earlier work
[3] = system: Pseudomonas aeruginosa, Staphylococcus aureus and Candida albicans; assay: Antimicrobial efficacy of liposome-encapsulated silver and tea tree oil; type: cell-based; details: singly and in combination, in a controlled release liposomal carrier system
Text: The aspects, advantages and/or other features of example embodiments of the present disclosure will become apparent to those skilled in the art, in view of the present detailed description. It should be apparent to those skilled in the art that the described embodiments of the present disclosure provided herein are merely exemplary and illustrative and not limiting. Numerous embodiments of modifications thereof are contemplated as falling within the scope of the present disclosure and equivalents thereto. Unless otherwise noted, technical terms are used according to conventional usage. Any publications mentioned in this specification are indicative of the level of those skilled in the art to which the invention pertains and are incorporated by reference in their entirety. […]

| Compound | interaction with streptomycin [1] | further results |
| --- | --- | --- |
| COc1ccc2cc3[n+](cc2c1OC)CCc1cc2c(cc1-3)OCO2 [berberine] | synergistic effect |  |
| O=CC=Cc1ccccc1 [cinnamaldehyde] | synergistic effect |  |
| O=C(O)c1cn(C2CC2)c2cc(N3CCNCC3)c(F)cc2c1=O [ciprofloxacin] |  | inhibition/eradication of biofilms [2]: inhibit/eradicate biofilms |
| C=CCc1ccc(O)c(OC)c1 [eugenol] | synergistic effect |  |
| Cc1ccc(C(C)C)c(O)c1 [thymol] | synergistic effect |  |
| silver |  | antimicrobial efficacy and effective concentration required [3]: can improve their antimicrobial efficacy as well as reduce the effective concentration required |
